Laboratory results published in ChEMBL document CHEMBL1127212, “Preparation and evaluation of the antiaggregating and vasodilating activities of the novel 3-nitro-4(3H)-quinazolinone derivatives” (Bioorg Med Chem Lett, 1993).

Experiments:
Type in all cases: functional
Oryctolagus cuniculus [1] = species: Oryctolagus cuniculus; test: Tested for vasodilating activity using a transverse strip preparation of rabbit thoracic aorta
Oryctolagus cuniculus [2] = species: Oryctolagus cuniculus; test: Tested in vitro for inhibition of aggregation induced by Collagen in rabbit platelet rich plasma at the dose of 10 ug/ml
Oryctolagus cuniculus [3] = species: Oryctolagus cuniculus; test: Tested in vitro for inhibition of aggregation induced by adenosine diphosphate (ADP) in rabbit platelet rich plasma at the dose of […]
Oryctolagus cuniculus [4] = species: Oryctolagus cuniculus; test: Tested in vitro for inhibition of aggregation induced by arachidonic acid in rabbit platelet rich plasma at the dose of 125 uM
Oryctolagus cuniculus [5] = species: Oryctolagus cuniculus; test: Tested for inhibition of aggregation induced by Collagen in rabbit platelet rich plasma in vitro at the dose of 10 ug/ml
Oryctolagus cuniculus [6] = species: Oryctolagus cuniculus; test: Tested for inhibition of aggregation induced by adenosine diphosphate (ADP) in rabbit platelet rich plasma in vitro at the dose of […]
Oryctolagus cuniculus [7] = species: Oryctolagus cuniculus; test: Tested for inhibition of aggregation induced by arachidonic acid in rabbit platelet rich plasma in Vitro at the dose of 125 uM

SODIUM NITROPRUSSIDE [listing 1 of 2 here]
pD2 (Oryctolagus cuniculus [1]): 4.08

CC(=O)OC1N([N+](=O)[O-])C(=O)c2cc(Cl)ccc2N1[N+](=O)[O-] (stereo unspecified)
pD2 (Oryctolagus cuniculus [1]): 5.4
IC50 (Oryctolagus cuniculus [2]; Oryctolagus cuniculus, Plasma): 52 µM
IC50 (Oryctolagus cuniculus [3]; Oryctolagus cuniculus, Plasma): 46 µM
IC50 (Oryctolagus cuniculus [4]): 40 µM

SODIUM NITROPRUSSIDE [listing 2 of 2 here]
IC50 (Oryctolagus cuniculus [2]): < 1000 µM
IC50 (Oryctolagus cuniculus [3]): 95 µM

CC(=O)OC1N([N+](=O)[O-])C(=O)c2ccccc2N1[N+](=O)[O-] (stereo unspecified)
pD2 (Oryctolagus cuniculus [1]): 5.36
IC50 (Oryctolagus cuniculus [5]): 52 µM
IC50 (Oryctolagus cuniculus [6]): 48 µM
IC50 (Oryctolagus cuniculus [7]): 50 µM
